From patent US20090053220A1, “METHODS AND COMPOSITIONS FOR THE INHIBITION OF HIV INFECTION OF T CELLS” (priority 2006, published 2009) come the findings set out here.

The target of experiment [1] is envelope protein of HIV strain JRCSF with V38A (HIV strain JRCSF) (UniProt P20871). Description: cell-based or functional assay.
Experiment [2] concerns the target envelope protein of HIV strain JRCSF with G36D (HIV strain JRCSF) (UniProt P20871). Briefly: cell-based or functional assay.
The target in experiment [3] is envelope protein of HIV strain JRCSF (WT) (HIV strain JRCSF) (UniProt P20871). Description: cell-based or functional assay.
Experiment [4] addresses envelope protein of HIV strain JRCSF with N43D (HIV strain JRCSF) (UniProt P20871). Description: cell-based or functional assay.
Experiment [5] has as its system patient-derived envelope population KJM (day 1) reporter virus. It is filed as cell-based, HIV. Particulars: KJM D1 virus. From the text: (§1) HIV RNA was extracted from patient serum using QIAamp isolation kits (Qiagen, Hilden. Germany) and used to generate cDNA with random hexamer primers (SuperScript First Strand Synthesis System for RT-PCR, Invitrogen, Carlsbad, Calif.). HIV envelope protein open reading frame sequences were specifically amplified using a nested PCR procedure with outer PCR primers: […]
(§2) which initiate priming 239 bases upstream and 349 bases downstream of the envelope open reading frame, respectively. The inner PCR primers were the same primers used for directional cloning of the envelope sequence populations into the pCI-neo vector, as described in Example 4. The resulting PCR products represent a population of envelope sequences from HIV viruses present in two patient samples, KJM (day 1) and KJM (week 9).
(§3) HIV reporter viruses for purposes of this experiment were constructed from: (1) the JRCSF WT envelope protein vector, (2) the T-20-resistant envelope protein variants G36D, V38A, or N43D generated in Example 4; or (3) the patient derived HIV envelope protein population of vectors from KJM (Day 1) or KJM (Week9) generated in Example 5. The reporter viruses were produced by co-transfecting the human embryonic kidney cell line HEK293FT (Invitrogen, Carlsbad, Calif.) with the envelope vectors described above and an envelope-deficient proviral DNA encoding a luciferase reporter gene. The cells were propagated in Dulbecco's Modified Eagle Medium (Invitrogen, Carlsbad, Calif.) supplemented with 10% fetal bovine serum (Invitrogen, Carlsbad, Calif.). Transfections were performed using Lipofectamine 2000 (Invitrogen, Carlsbad, Calif.). Culture supernatants were harvested 48 hours post-transfection and filtered through a 0.45 micron filter prior to infecting target cells.
(§4) Viral infections were carried out in a human malignant glioma (U87) target cell expressing the human CD4 receptor and the human CCR5 chemokine receptor. Target cells were seeded into 96-well plates at a density of 3000 cells/well in Dulbecco's Modified Eagle Medium (Invitrogen, Carlsbad, Calif.) supplemented with 10% fetal bovine serum (Invitrogen. Carlsbad, Calif.) and cultured for […]. Target cells were then exposed to the virus generated in Example 6 mixed with varying concentrations of the entry inhibitors T-20 or an anti-CD4 MAb in a final volume of 40-80 microliters. Infection was triggered by centrifugation of the 96-well plates at 1200*g for 1.5-2.0 hours at 25° C. (i.e. spinoculation). After spinoculation, culture medium was added to a final volume of […] per well and the infected cultures were incubated for 3 days at 37° C. After 3 days the level of luciferase expressed in target cells was measured using a luciferase reporter gene assay reagent (Promega, Madison, Wis.), as described by the manufacturer.
(§5) Dose-response curves for the inhibition of luciferase expression by entry inhibitors were derived by fitting the luciferase data with a four-parameter logistic using Origin 7 Client software (OriginLab, Northampton, Mass.). Each dose-response experiment comprised a nine point concentration curve plus untreated controls, all assayed in triplicate wells (raw data not shown). For each EC50 determination, the results of three or more independent experiments were used to calculate the average EC50 and standard error values.

For experiment [6], the system named is patient-derived envelope population KJM (week 9) reporter virus. It is filed as cell-based, HIV. The following applies: KJM W9 virus.
Excerpt: as §1, §2, §3, §4, §5

The test system of experiment [7] is T-20-resistant JRCSF envelope variant G36D reporter virus. It is filed as cell-based, HIV.
Excerpt: (§6) In addition, three single amino acid substitutions, G36D, V38A and N43D, known to confer T-20 resistance for HIV were introduced into the JRCSF open reading frame by site-directed mutagenesis (QuikChange II kit, Stratagene, La Jolla, Calif.), thereby generating three T-20-resistant HIV envelope protein expression vectors called […], V38A and N43D.
as §3, §4, §5

In experiment [8] the test system is T-20-resistant JRCSF envelope variant N43D reporter virus. It is filed as cell-based, HIV.
Excerpt: as §6, §3, §4, §5

Experiment [9] concerns T-20-resistant JRCSF envelope variant V38A reporter virus. It is filed as cell-based, HIV.
Excerpt: as §6, §3, §4, §5

Experiment [10] relates to JRCSF WT envelope reporter virus. It is filed as cell-based, HIV. From the text:
A DNA expression vector comprising the envelope protein of HIV strain JRCSF was constructed using a commercially available pCI-neo vector (Promega, Madison, Wis.). JRCSF is a primary isolate obtained from an HIV patient which was deposited with the NIH AIDS Research & Reference Reagent Program (Cat. No. 2708). The JRCSF envelope open reading frame was amplified by standard PCR using the following primers: […]
These primers initiate priming at codon 2 of the envelope open reading frame and immediately downstream of the envelope termination codon, respectively. They contain restriction enzymes recognition sequences suitable for directional cloning into the pCI-neo vector. This JRCSF envelope protein expression vector was used in Example 6 below as the WT control. […]
Viral infections were carried out in a human malignant glioma (U87) target cell expressing the human CD4 receptor and the human CCR5 chemokine receptor. […] After 3 days the level of luciferase expressed in target cells was measured using a luciferase reporter gene assay reagent (Promega, Madison, Wis.), as described by the manufacturer. […]

[11] abbreviates: average +/- standard error, 4 determinations.

In the case of T-20 (peptide), the results for the Fold Change (EC50MUT/EC50WT JRCSF) in [1], in experiment [2] and in [4] were 32 fold, 11 fold and 22 fold, respectively. The PMI was 91% in experiment [1], 99% in experiment [2], 98% in [3] and 96% in [4].
What is called EC50 is the midpoint of the concentration-response curve. A higher EC50 goes with a less potent agent. For enfuvirtide, the PMI in experiment [5] is 99 ± 1.3; in [6], 100 ± 0.58; in experiment [7] it was 99 ± 1.5; in experiment [8], 96 ± 3.4; in experiment [9] it was 91 ± 8.9; in [10], 98 ± 2.4. The EC50 in [5] (setting [11]) was 0.0091 ± 0.003 µg/mL; in experiment [6] (setting [11]), 0.0085 ± 0.0027 µg/mL; in experiment [7] (setting [11]) it was 0.14 ± 0.026 µg/mL; in experiment [8] (setting [11]) it was 0.28 ± 0.08 µg/mL; in experiment [9] (setting [11]), 0.41 ± 0.21 µg/mL; in experiment [10] (setting [11]), 0.013 ± 0.0035 µg/mL. The “Fold Change” value is listed as 0.93 in experiment [6] (EC50W9/EC50D1), 11 in [7] (EC50MUT/EC50WT JRCSF), 22 in [8] (EC50MUT/EC50WT JRCSF) and 32 in [9] (EC50MUT/EC50WT JRCSF).
